Measured values: ChEMBL document CHEMBL1201862, “PubChem BioAssay data set” (2004)
Calls of active or inactive are those of the source.

What was measured:
[1] = biological target: Endoplasmic reticulum aminopeptidase 1 (Homo sapiens, UniProt Q9NZ08); assay: ERAP1 aminopeptidase inhibitors, dose response, biochemical, cherry-pick, set 2, plate reader (AID 743314)
[2] = biological target: Cytochrome P450 2C9 (Homo sapiens, UniProt P11712)
[3] = biological target: Cytochrome P450 2C19 (Homo sapiens, UniProt P33261); assay: Cytochrome panel assay with activity outcomes. Panel member name: p450-cyp2c19 Compounds with AC50 equal or less than 10 uM are considered active; assay type: functional
Sequence of Cytochrome P450 2C19 (P33261 whole entry): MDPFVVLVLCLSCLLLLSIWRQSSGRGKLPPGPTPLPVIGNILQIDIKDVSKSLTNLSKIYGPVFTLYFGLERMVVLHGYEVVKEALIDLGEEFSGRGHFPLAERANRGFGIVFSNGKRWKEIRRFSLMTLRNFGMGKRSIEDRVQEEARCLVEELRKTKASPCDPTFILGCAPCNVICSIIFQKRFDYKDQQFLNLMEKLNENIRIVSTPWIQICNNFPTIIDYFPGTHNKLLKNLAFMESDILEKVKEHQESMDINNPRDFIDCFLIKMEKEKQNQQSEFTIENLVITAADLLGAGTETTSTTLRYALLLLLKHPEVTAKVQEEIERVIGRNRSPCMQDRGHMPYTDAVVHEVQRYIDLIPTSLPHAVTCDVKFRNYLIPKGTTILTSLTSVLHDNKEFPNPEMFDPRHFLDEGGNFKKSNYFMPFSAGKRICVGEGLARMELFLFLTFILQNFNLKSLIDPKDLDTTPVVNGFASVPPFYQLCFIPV

[4] = biological target: Cytochrome P450 2D6 (Homo sapiens, UniProt P10635);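 further: CYP2D6 member of a cytochrome P450 panel assay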
Sequence of Cytochrome P450 2D6 (P10635 whole entry): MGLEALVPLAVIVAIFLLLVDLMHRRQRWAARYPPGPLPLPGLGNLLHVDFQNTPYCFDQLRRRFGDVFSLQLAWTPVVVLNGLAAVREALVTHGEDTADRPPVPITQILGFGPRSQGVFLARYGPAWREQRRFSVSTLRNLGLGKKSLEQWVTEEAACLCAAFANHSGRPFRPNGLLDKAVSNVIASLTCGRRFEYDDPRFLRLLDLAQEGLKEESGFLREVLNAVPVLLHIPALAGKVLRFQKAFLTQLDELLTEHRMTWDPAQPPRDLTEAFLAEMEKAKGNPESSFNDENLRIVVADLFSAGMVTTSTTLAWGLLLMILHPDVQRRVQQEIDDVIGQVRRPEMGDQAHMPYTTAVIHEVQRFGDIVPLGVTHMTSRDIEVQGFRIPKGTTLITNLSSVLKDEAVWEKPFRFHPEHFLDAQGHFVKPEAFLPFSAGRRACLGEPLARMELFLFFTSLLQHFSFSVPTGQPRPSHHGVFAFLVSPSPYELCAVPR

[5] = biological target: T1, Oxysterols receptor LXR-beta (Homo sapiens, UniProt P55055); assay type: functional, cell-based
T1 sequence (P55055 whole entry): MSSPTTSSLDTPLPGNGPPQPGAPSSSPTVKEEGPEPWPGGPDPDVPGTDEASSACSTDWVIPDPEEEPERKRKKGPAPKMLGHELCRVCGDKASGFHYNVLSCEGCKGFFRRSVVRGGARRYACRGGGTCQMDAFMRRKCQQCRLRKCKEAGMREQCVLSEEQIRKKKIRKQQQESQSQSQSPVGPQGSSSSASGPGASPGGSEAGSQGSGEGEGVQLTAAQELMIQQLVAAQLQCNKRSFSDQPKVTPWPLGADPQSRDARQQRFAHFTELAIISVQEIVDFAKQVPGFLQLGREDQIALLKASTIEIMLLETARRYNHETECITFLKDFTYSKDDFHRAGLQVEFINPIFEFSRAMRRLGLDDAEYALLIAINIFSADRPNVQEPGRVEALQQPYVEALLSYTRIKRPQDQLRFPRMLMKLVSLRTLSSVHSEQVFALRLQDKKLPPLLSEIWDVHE

[6] = cells
[7] = biological target: T2, Caspase-3 (Homo sapiens, UniProt P42574); assay type: functional;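 further: Dose-response selectivity test against caspase-3 for candidate inhibitors of sentrin-specific proteases (SENPs)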
T2 sequence (P42574 whole entry): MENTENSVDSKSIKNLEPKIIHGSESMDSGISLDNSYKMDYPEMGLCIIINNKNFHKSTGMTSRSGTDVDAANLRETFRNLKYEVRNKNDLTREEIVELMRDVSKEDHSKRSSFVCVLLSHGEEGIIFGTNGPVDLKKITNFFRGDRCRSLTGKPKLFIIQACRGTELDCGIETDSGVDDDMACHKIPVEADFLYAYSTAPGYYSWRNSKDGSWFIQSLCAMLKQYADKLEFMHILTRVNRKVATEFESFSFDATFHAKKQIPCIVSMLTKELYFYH

[8] = biological target: T3, Sentrin-specific protease 8 (Homo sapiens, UniProt Q96LD8); assay type: functional;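 further: luminescence read-out of SENP8 inhibition, dose-response confirmation following an ultra-high-throughput screen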
T3 sequence (Q96LD8 whole entry): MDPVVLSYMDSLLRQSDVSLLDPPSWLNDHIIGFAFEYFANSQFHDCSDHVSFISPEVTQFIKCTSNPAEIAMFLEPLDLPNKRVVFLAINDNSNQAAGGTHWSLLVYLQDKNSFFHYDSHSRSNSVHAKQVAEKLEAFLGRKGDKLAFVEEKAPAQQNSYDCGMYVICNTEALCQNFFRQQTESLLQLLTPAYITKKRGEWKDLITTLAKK

[9] = biological target: T4, Sentrin-specific protease 6 (Homo sapiens, UniProt Q9GZR1); assay type: functional;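 further: Luminescence-based dose-response confirmatory assay of SENP6 inhibition, following up an ultra-high-throughput screen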
T4 sequence (Q9GZR1 whole entry): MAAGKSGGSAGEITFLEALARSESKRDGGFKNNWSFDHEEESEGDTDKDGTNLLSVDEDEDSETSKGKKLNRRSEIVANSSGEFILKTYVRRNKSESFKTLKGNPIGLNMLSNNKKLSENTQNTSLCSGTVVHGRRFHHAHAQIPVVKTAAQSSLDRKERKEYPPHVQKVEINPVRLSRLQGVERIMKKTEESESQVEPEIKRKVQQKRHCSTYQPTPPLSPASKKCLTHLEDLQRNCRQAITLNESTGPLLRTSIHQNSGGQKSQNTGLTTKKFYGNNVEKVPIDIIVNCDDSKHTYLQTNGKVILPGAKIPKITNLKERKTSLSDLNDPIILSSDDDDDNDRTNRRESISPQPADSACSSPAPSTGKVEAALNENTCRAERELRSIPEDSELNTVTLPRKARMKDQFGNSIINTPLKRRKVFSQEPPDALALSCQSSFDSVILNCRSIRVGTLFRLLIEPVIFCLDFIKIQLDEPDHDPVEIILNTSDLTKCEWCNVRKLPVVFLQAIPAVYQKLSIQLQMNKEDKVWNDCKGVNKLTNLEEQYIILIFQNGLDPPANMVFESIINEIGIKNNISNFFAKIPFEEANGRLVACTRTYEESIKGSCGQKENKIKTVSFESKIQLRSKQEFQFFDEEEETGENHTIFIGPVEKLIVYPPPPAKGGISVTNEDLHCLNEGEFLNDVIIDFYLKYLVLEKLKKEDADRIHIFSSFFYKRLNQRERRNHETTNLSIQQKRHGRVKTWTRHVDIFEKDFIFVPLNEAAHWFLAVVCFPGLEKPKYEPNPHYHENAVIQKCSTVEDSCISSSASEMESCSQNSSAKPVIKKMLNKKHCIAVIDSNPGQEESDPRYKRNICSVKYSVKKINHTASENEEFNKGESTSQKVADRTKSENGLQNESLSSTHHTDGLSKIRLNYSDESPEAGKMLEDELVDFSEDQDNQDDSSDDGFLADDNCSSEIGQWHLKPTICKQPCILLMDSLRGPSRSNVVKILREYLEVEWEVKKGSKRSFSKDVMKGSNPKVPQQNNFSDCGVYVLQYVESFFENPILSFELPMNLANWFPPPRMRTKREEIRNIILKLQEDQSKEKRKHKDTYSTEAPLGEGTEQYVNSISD

[10] = biological target: FAD-linked sulfhydryl oxidase ALR (Homo sapiens, UniProt P55789); assay: inhibitors of human ALR sulfhydryl oxidase, dose response, biochemical, H2O2 detection, luminescence, cherry-pick (AID 493248)
Sequence of FAD-linked sulfhydryl oxidase ALR (P55789 whole entry): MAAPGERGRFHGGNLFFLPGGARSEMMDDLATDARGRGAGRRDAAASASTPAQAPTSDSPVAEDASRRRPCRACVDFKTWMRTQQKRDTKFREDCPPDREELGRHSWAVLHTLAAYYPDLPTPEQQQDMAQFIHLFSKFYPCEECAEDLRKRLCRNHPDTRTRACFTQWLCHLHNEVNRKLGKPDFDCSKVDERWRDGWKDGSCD

[11] = biological target: T5, Sentrin-specific protease 7 (Homo sapiens, UniProt Q9BQF6); assay type: functional;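 further: Luminescence-based dose-response confirmation of ultra-high-throughput screening hits, measuring inhibition of SENP7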
T5 sequence (Q9BQF6 whole entry): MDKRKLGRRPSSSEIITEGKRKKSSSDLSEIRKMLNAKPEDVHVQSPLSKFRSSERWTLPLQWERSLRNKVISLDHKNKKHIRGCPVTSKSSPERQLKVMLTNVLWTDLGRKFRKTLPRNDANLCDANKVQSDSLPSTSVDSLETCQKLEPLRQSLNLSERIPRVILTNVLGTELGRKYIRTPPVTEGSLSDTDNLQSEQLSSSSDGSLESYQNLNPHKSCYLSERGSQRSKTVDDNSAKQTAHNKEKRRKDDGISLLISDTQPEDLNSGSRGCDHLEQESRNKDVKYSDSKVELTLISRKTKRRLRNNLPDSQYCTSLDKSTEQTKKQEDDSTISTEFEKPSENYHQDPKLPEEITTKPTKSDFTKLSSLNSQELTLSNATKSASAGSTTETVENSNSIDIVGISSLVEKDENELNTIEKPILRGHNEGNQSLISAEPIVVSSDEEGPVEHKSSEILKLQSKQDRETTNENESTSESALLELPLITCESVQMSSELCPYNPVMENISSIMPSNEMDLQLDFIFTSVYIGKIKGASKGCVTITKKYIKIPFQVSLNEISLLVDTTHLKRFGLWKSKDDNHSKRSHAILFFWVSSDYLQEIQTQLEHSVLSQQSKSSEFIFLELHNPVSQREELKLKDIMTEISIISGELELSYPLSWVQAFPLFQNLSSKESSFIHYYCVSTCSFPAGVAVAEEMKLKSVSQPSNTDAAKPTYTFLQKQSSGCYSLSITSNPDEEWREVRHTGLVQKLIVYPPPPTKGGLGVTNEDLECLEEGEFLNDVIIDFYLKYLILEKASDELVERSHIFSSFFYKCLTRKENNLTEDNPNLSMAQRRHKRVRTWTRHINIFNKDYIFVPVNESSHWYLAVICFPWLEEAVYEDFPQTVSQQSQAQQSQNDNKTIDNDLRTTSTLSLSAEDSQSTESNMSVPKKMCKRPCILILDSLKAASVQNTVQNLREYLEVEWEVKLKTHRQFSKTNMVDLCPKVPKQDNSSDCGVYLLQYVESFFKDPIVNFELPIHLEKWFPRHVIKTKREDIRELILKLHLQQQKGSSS

[12] = biological target: T1, Oxysterols receptor LXR-beta; assay type: functional, cell-based; remark: listed apart in the source
[13] = biological target: T6, Polyadenylate-binding protein 1 (Homo sapiens, UniProt P11940); assay: PABP1 MLLE–PAM2 interaction inhibitors, dose response, miRNA deadenylation inhibitor project, biochemical, fluorescence polarization, Cy5-PAM2 peptide, secondary (AID 602260); assay type: functional; details: read-out: IC50_Mean
T6 sequence (P11940 whole entry): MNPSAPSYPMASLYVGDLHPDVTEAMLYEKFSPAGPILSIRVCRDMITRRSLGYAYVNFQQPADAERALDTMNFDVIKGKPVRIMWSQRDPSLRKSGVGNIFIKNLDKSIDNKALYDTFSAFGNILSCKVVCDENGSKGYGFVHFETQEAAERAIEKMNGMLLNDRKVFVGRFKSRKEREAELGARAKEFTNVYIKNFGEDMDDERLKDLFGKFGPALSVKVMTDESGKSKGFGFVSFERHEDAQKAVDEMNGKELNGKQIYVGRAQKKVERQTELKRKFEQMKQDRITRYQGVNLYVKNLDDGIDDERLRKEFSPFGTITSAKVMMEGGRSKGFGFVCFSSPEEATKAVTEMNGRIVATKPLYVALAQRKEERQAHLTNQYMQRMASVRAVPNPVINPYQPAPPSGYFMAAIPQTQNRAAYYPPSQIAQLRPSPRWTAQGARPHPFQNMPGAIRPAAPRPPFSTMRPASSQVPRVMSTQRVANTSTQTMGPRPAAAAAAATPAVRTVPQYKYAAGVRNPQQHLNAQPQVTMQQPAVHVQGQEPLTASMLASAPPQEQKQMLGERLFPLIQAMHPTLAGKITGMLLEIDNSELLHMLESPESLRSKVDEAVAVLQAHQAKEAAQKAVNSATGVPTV

[14] = biological target: T6, Polyadenylate-binding protein 1; assay: PABP1 MLLE–PAM2 binding inhibitor potency, dose response, biochemical, fluorescence polarization, FITC-PAM2 peptide (AID 602259); assay type: functional; details: read-out: IC50_Mean
[15] = biological target: T7, Aminopeptidase N (Plasmodium falciparum FcB1/Columbia, UniProt O96935); assay: P. falciparum M1AAP inhibitors, biochemical, fluorogenic H-Leu-NHMec substrate, 1536-well (AID 1445); design: species or system Plasmodium falciparum 3D7, 3D7
T7 sequence (O96935 whole entry): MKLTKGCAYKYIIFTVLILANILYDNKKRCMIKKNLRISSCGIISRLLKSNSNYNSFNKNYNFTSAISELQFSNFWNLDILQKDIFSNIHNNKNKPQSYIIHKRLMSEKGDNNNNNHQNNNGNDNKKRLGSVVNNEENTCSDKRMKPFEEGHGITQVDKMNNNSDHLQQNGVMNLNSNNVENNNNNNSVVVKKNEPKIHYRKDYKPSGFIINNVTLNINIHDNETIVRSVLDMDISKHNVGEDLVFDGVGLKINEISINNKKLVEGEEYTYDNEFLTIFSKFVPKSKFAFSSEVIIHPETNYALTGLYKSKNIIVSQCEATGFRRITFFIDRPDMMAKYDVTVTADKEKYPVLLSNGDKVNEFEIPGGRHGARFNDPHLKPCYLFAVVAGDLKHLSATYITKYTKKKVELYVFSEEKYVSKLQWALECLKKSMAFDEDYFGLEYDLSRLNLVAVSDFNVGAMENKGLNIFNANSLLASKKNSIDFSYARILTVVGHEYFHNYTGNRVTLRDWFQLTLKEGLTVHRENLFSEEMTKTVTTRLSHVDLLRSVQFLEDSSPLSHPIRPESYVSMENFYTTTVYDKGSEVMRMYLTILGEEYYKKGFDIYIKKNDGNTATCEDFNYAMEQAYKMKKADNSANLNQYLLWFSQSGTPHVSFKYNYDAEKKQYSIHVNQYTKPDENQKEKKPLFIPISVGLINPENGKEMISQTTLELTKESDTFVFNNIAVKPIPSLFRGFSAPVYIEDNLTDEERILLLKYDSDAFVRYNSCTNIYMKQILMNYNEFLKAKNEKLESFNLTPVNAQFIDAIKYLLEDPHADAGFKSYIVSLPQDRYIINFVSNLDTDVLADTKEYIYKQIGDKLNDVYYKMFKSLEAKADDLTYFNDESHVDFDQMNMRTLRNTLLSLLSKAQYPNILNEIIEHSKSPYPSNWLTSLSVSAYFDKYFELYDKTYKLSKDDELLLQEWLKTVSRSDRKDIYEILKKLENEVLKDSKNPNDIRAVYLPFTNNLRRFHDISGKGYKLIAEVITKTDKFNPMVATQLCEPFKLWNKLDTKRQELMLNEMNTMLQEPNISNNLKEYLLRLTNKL

[16] = Luminescence Cell-Based Dose Confirmation HTS to Identify Activators of 5'UTR Stem-Loop Driven Alpha-Synuclein mRNA Translation in H4 Neuroglioblastoma Cells. [Related pubchem assays: 1829 (Project Summary), 1814 (Primary HTS)]; assay type: functional
[17] = Luminescence Cell-Based Dose Response HTS to Identify Activators of Luciferase Translation or Activity in H4 […] Cells. [Related pubchem assays: 1829 (Project Summary), 1814 (Primary HTS)]; assay type: functional
[18] = inhibitors of Vif binding to APOBEC3G peptide, primary screen, biochemical, TR-FRET, GST-Vif 1-94, biotin-A3G peptide, dose response retest (AID 1117319); assay type: functional;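 further: TR-FRET signal of purified GST-Vif binding a biotinylated A3G peptide; inhibitors lower the FRET signal by blocking Vif and A3G binding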
[19] = MC4R antagonists, dose response, counter-screen for LGR2 antagonist project, cell-based, plate reader, cherry pick (AID 743444); assay type: functional;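 further: transfected HEK 293 cells stimulated with alpha-MSH peptide; potency of inhibitors of the alpha-MSH evoked signal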
[20] = A549 cell cytotoxicity, dose response, cytotoxicity control, plate reader, cherry-pick, antagonist series (AID 743412); assay type: functional, cell-based
[21] = LGR2 antagonists, dose response, cell-based, HEK293, CRE-luciferase reporter, cherry pick, set 2 (AID 743343); assay type: functional;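 further: transfected cells were stimulated with diluted bursicon conditioned medium after compound addition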
[22] = HepG2 cell cytotoxicity, dose response, cytotoxicity control, plate reader, cherry-pick, antagonist series (AID 743416); assay type: functional, cell-based
[23] = HEK293 cell cytotoxicity, dose response, cytotoxicity control, plate reader, cherry-picked samples (AID 743446); assay type: functional, cell-based

Sequence of Endoplasmic reticulum aminopeptidase 1 (Q9NZ08 whole entry): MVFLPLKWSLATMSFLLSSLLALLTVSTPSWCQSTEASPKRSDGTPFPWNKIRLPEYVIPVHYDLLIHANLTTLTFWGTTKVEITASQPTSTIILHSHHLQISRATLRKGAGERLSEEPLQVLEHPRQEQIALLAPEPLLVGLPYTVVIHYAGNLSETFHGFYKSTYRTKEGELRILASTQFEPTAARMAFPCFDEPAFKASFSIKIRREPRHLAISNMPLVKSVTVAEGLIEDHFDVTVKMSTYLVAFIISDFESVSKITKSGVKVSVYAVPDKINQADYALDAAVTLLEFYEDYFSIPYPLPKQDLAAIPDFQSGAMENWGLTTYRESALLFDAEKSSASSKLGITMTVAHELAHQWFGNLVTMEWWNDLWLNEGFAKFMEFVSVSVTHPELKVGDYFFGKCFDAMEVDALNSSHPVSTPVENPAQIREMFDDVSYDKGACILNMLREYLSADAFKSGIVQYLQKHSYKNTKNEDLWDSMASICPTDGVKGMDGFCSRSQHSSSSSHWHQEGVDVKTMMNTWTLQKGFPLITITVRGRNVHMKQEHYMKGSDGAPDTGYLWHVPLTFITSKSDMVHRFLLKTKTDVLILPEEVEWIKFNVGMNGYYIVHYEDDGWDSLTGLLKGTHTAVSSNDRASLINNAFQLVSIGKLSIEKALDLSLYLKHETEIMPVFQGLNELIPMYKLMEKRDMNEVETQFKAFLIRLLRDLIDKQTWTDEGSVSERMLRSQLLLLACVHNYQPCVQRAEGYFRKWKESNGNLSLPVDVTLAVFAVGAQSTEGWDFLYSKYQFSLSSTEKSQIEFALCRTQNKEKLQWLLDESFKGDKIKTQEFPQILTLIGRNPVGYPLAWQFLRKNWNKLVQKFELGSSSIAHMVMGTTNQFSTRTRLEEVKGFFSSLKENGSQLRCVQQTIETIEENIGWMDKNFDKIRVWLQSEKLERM
Sequence of Cytochrome P450 2C9 (P11712 whole entry): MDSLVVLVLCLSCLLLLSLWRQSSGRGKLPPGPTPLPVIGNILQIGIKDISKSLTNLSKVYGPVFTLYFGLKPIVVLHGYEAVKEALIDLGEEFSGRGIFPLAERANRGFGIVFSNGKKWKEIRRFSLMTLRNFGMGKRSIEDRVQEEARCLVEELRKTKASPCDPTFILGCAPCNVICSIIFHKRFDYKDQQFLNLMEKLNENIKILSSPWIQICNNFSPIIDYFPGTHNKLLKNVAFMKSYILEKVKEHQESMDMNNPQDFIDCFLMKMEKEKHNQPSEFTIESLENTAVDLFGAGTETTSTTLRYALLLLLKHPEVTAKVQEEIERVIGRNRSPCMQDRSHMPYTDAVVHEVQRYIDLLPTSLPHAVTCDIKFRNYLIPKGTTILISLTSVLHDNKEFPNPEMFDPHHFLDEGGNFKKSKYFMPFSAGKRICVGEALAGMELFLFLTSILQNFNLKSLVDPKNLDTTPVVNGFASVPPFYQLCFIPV

COC(=O)[C@H]1[C@H](CO)[C@H]2Cn3c(ccc(/C=C/c4ccccc4)c3=O)[C@@H]1N2CC1CCCC1
AC50 [1]: 11.9 µM (active)

Cn1cc(-c2nnc(-c3ccccc3)o2)c2ccccc21
AC50 [2]: inconclusive
AC50 [3]: inconclusive
AC50 [4]: 3.55 µM (inconclusive)
EC50 [5]: > 67.5 µM (inactive)
EC50 [6]: > 67.5 µM (inactive)

CCCN1[C@@H]2c3ccc(/C=C/c4ccccc4)c(=O)n3C[C@H]1[C@H](CO)[C@H]2C(=O)NCc1ccccn1
AC50 [1]: 6.65 µM (active)

Cc1cccc(N=Nc2cnc(N)s2)c1
IC50 [7]: 34.5 µM (active)
IC50 [8]: 19.1 µM (active)
IC50 [9]: 25.8 µM (active)
AC50 [10]: 1.29 µM (active)
IC50 [11]: 9.64 µM (active)
EC50 [12]: > 67.6 µM (inactive)

CCN(CC)Cc1c(O)c(Cl)cc2c(C)cc(=O)oc12
IC50 [13]: > 66 µM (inactive)
AC50 [1]: 4.88 µM (active)
IC50 [14]: 39.1 µM (inactive)
IC50 [15]: 48.6 µM (active)

CCCS(=O)(=O)NCc1cn2c(C)csc2n1
EC50 [16]: 6.17 µM (active)
EC50 [12]: > 67.5 µM (inactive)
EC50 [17]: 12.6 µM (active)
IC50 [18]: > 100 µM (active)

OCc1cccc(-c2cnc3c(Nc4cccc(OC(F)(F)C(F)F)c4)nccn23)c1
AC50 [19]: 26.8 µM (active)
AC50 [20]: 43.3 µM (active)
AC50 [21]: 23.8 µM (active)
AC50 [22]: 41.7 µM (active)
AC50 [23]: > 52 µM (inactive)

CC(C)(C)c1ccc(Nc2[nH]nc3ccccc23)cc1
EC50 [5]: > 67.6 µM (inactive)
EC50 [6]: > 67.6 µM (inactive)

N#C[C@H]1[C@H](c2ccc(C#Cc3ccccc3F)cc2)[C@H](CO)N1C(=O)C1CC1
AC50 [19]: 12.8 µM (active)
AC50 [20]: 23.9 µM (active)
AC50 [21]: 16.4 µM (active)
AC50 [22]: 34.7 µM (active)
AC50 [23]: 15.4 µM (active)
